Here are results for 28 compounds from ChEMBL document CHEMBL1140218, “Novel bis- and tris-1,2,4-trioxanes: synthesis and antimalarial activity against multidrug-resistant Plasmodium yoelii in Swiss mice” (J Med Chem, 2008).

Data set [1] deals with Plasmodium yoelii nigeriensis. Put plainly: Antimalarial activity as survival time against multidrug-resistant Plasmodium yoelii nigeriensis in Swiss mice (Mus musculus) at 96 mg/kg peroral dose for 4 days. It counts as functional. The following applies: route oral.
Data set [2] deals with Plasmodium yoelii nigeriensis. Put plainly: Antimalarial activity as cures against multidrug-resistant Plasmodium yoelii nigeriensis in Swiss mice (Mus musculus) at 96 mg/kg peroral dose for 4 days. It counts as functional, organism-based. More on the design: dose 96 mg/kg.
Data set [3] deals with Plasmodium yoelii nigeriensis. In words: Antimalarial activity as reduced parasitaemia against multidrug-resistant Plasmodium yoelii nigeriensis in Swiss mice (Mus musculus) at 96 mg/kg peroral dose for 4 days. The following applies: route oral. It counts as functional. More on the design: scale not given: the % may be the effect or the level left.
Data set [4] deals with Plasmodium yoelii nigeriensis. In words: Antimalarial activity as reduced parasitaemia against multidrug-resistant Plasmodium yoelii nigeriensis in Swiss mice (Mus musculus) at 24 mg/kg peroral dose for 4 days. It counts as functional. More on the design: scale not given: the % may be the effect or the level left. The following applies: route oral.
The subject of data set [5] is Plasmodium yoelii nigeriensis. Put plainly: Antimalarial activity as cures against multidrug-resistant Plasmodium yoelii nigeriensis infected Swiss mice (Mus musculus) at 48 mg/kg peroral dose over 4 days. It counts as functional, organism-based. Details: dose 48 mg/kg.
Data set [6] relates to Plasmodium yoelii nigeriensis. Put plainly: Antimalarial activity as reduced parasitaemia against multidrug-resistant Plasmodium yoelii nigeriensis in Swiss mice (Mus musculus) at 48 mg/kg peroral dose for 4 days. The following applies: route oral. It counts as functional. Details: scale not given: the % may be the effect or the level left.
Data set [7] has as its system Plasmodium yoelii nigeriensis. In words: Antimalarial activity as survival time against multidrug-resistant Plasmodium yoelii nigeriensis in Swiss mice (Mus musculus) at 48 mg/kg peroral dose for 4 days. It counts as functional. The following applies: route oral.
Data set [8] in a line: Solubility in groundnut oil. It counts as physicochemical.
For data set [9], the system named is Plasmodium yoelii nigeriensis. Put plainly: Antimalarial activity as survival time against multidrug-resistant Plasmodium yoelii nigeriensis in Swiss mice (Mus musculus) at 24 mg/kg peroral dose for 4 days. It counts as functional. The following applies: route oral.

Activity calls are given as the source filed them. The calls are words filed in the database; no cut-off is given here.

With `C=C(c1ccc(OCC(O)COc2ccc(C(=C)C3COC4(OO3)C3CC5CC(C3)CC4C5)cc2)cc1)C1COC2(OO1)C1CC3CC(C1)CC2C3` (centres undefined), the Survival in data set [1] worked out at 8.6 days. The outcome in [2] was inactive. Besides, in data set [3], the Activity is 26.76%.
`C=C(c1ccc(Oc2cccc(C(=C)C3COC4(OO3)C3CC5CC(C3)CC4C5)c2)cc1)C1COC2(OO1)C1CC3CC(C1)CC2C3` (centres undefined) yielded a Survival in data set [1] of 7.6 days. The outcome in data set [2] was inactive. In data set [3], this compound showed an Activity of 7.16%.
In the case of `CCO[C@@H]1C[C@@H]2CC[C@@H](C)[C@@H]3CC[C@]4(C)OO[C@@]23[C@H](O1)O4`, the Activity in data set [4] and in data set [6] was 100% each time. For the same compound, the outcome in data set [5] was Active. The same compound came in with a Survival in data set [1] of over 28 days.
Compound `C=C(c1ccc(Oc2ccc3ccc(Oc4ccc(C(=C)C5COC6(OO5)C5CC7CC(C5)CC6C7)cc4)cc3c2)cc1)C1COC2(OO1)C1CC3CC(C1)CC2C3` (centres undefined) gave a Survival in data set [1] of 7.4 days. In addition, the result in data set [2] was inactive. In data set [3], the Activity came out at 36.07%.
In [1], `C=C(c1ccc(Oc2cccc3c(Oc4ccc(C(=C)C5COC6(OO5)C5CC7CC(C5)CC6C7)cc4)cccc23)cc1)C1COC2(OO1)C1CC3CC(C1)CC2C3` (centres undefined) registered a Survival of 7.4 days. Moreover, the outcome in data set [2] was inactive. Moreover, the Activity in data set [3] came to 12.27%.
Regarding `C=C(c1ccc(OCC(O)COc2ccc(C(=C)C3COC4(CCCCC4)OO3)cc2)cc1)C1COC2(CCCCC2)OO1` (centres undefined), in data set [5], the outcome was inactive. The figures for the Activity in data set [6] and in data set [3] were 75.86% and 100%, respectively. Besides, the Survival in data set [1] is over 28 days; in data set [7], 8 days. In [2], the outcome was Active.
Take `C=C(c1ccc(OCC(O)COc2ccc(C(=C)C3COC4(CCCC4)OO3)cc2)cc1)C1COC2(CCCC2)OO1` (centres undefined): the result in data set [5] was inactive. Moreover, the Activity in [6] is reported as 74.32%; in [3] it was 100%. For the same compound, the Survival is over 28 days in data set [1] and 9.6 days in data set [7]. In [2], the result was Active.
In turn, `C=C(c1ccc(Oc2ccc(C(=C)C3COC4(OO3)C3CC5CC(C3)CC4C5)cc2)cc1)C1COC2(OO1)C1CC3CC(C1)CC2C3` (centres undefined) registered a Survival in [1] of 7.2 days. Besides, the outcome in [2] was inactive. Also, in [3], the Activity worked out at 36.74%.
As to `C=C(c1ccc(OCCOc2ccc(C(=C)C3COC4(OO3)C3CC5CC(C3)CC4C5)cc2)cc1)C1COC2(OO1)C1CC3CC(C1)CC2C3` (centres undefined), the Survival in data set [1] turned out to be 7.6 days. For the same compound, the outcome in data set [2] was inactive. The compound also returned an Activity in data set [3] of 66.39%.
Compound `C=C(c1ccc(Oc2cccc3c(Oc4ccc(C(=C)C5COC6(CCCCC6)OO5)cc4)cccc23)cc1)C1COC2(CCCCC2)OO1` (centres undefined) showed a Survival in [1] of 8.2 days. The result in data set [2] was inactive. This compound also showed an Activity in [3] of 16.36%.
Turning to `C=C(c1ccc(Oc2ccc3ccc(Oc4ccc(C(=C)C5COC6(CCCCC6)OO5)cc4)cc3c2)cc1)C1COC2(CCCCC2)OO1` (centres undefined), in [8], the solubility result is given as “Insoluble”.
Regarding `C=C(c1ccc(Oc2cc(Oc3ccc(C(=C)C4COC5(OO4)C4CC6CC(C4)CC5C6)cc3)cc(Oc3ccc(C(=C)C4COC5(OO4)C4CC6CC(C4)CC5C6)cc3)c2)cc1)C1COC2(OO1)C1CC3CC(C1)CC2C3` (centres undefined), in data set [1], the Survival was 7.4 days. For the same compound, the result in data set [2] was inactive. Moreover, the Activity in data set [3] was 5.47%.
In data set [1], `C=C(c1ccc(Oc2ccc(Oc3ccc(C(=C)C4COC5(CCCC5)OO4)cc3)cc2)cc1)C1COC2(CCCC2)OO1` (centres undefined) gave a Survival of 7.6 days. Moreover, the result in [2] was inactive. This compound also displayed an Activity in data set [3] of 50.83%.
On to `C=C(c1ccc(Oc2cccc(C(=C)C3COC4(CCCCC4)OO3)c2)cc1)C1COC2(CCCCC2)OO1` (centres undefined), for which the Survival in data set [1] turned out to be 10 days. Besides, the outcome in data set [2] was inactive. In data set [3], this compound yielded an Activity of 76.79%.
In [1], `C=C(c1ccc(Oc2cccc3c(Oc4ccc(C(=C)C5COC6(CCCC6)OO5)cc4)cccc23)cc1)C1COC2(CCCC2)OO1` (centres undefined) came in with a Survival of 8.4 days. Also, the result in data set [2] was inactive. Besides, the Activity in data set [3] was found to be 40.05%.
Consider `C=C(c1ccc(Oc2cc(Oc3ccc(C(=C)C4COC5(CCCCC5)OO4)cc3)cc(Oc3ccc(C(=C)C4COC5(CCCCC5)OO4)cc3)c2)cc1)C1COC2(CCCCC2)OO1` (centres undefined), for which the Survival in [1] worked out at 8.4 days. Besides, the outcome in data set [2] was inactive. The compound also gave an Activity in data set [3] of 26.37%.
For `C=C(c1ccc(Oc2ccc(Oc3ccc(C(=C)C4COC5(OO4)C4CC6CC(C4)CC5C6)cc3)cc2)cc1)C1COC2(OO1)C1CC3CC(C1)CC2C3` (centres undefined), in that order: 9 days, “inactive” and 38.46%.
As for `C=C(c1ccc(Oc2ccc(C(=C)C3COC4(CCCCC4)OO3)cc2)cc1)C1COC2(CCCCC2)OO1` (centres undefined), the outcome in data set [5] was inactive. Also, the Activity in [6] and in data set [3] was 100% each time. For the same compound, the Survival in data set [1] was over 28 days; in data set [7], 11.8 days. Besides, in [2], the outcome was Active.
Take `C=C(c1ccc(OCCCOc2ccc(C(=C)C3COC4(CCCCC4)OO3)cc2)cc1)C1COC2(CCCCC2)OO1` (centres undefined): in data set [5], the result was inactive. Moreover, the Activity is on record as 87.47% in [6] and 100% in data set [3]. Also, the Survival is over 28 days in [1] and 10.8 days in data set [7]. Besides, in data set [2], the result was Active.
In the case of `C=C(c1ccc(Oc2cccc(C(=C)C3COC4(CCCC4)OO3)c2)cc1)C1COC2(CCCC2)OO1` (centres undefined), the result in [5] was inactive. The Activity in [6] and in data set [3] was 100% throughout. Besides, the Survival in data set [1] is over 28 days; in data set [7], 12.2 days. The outcome in data set [2] was Active.
Turning to `C=C(c1ccc(OCCOc2ccc(C(=C)C3COC4(CCCCC4)OO3)cc2)cc1)C1COC2(CCCCC2)OO1` (centres undefined), the Survival in data set [1] was found to be 10.6 days. The outcome in [2] was inactive. Further, the Activity in [3] was 86.29%.
In data set [1], `C=C(c1ccc(Oc2ccc(Oc3ccc(C(=C)C4COC5(CCCCC5)OO4)cc3)cc2)cc1)C1COC2(CCCCC2)OO1` (centres undefined) yielded a Survival of 8.6 days. The outcome in data set [2] was inactive. Further, the Activity in [3] was 47.33%.
As for `C=C(c1ccc(OCCCOc2ccc(C(=C)C3COC4(OO3)C3CC5CC(C3)CC4C5)cc2)cc1)C1COC2(OO1)C1CC3CC(C1)CC2C3` (centres undefined), the Survival in data set [1] worked out at 7.4 days. Further, the outcome in data set [2] was inactive. For the same compound, in data set [3], the Activity amounted to 32.54%.
For `C=C(c1ccc(OCCOc2ccc(C(=C)C3COC4(CCCC4)OO3)cc2)cc1)C1COC2(CCCC2)OO1` (centres undefined), in [5], the result was inactive. Besides, the Activity in [6] is listed as 87.76%; in data set [3] it was 100%. The Survival in data set [1] was over 28 days; in data set [7], 12.2 days. Further, in data set [2], the result was Active.
For `C=C(c1ccc(Oc2cc(Oc3ccc(C(=C)C4COC5(CCCC5)OO4)cc3)cc(Oc3ccc(C(=C)C4COC5(CCCC5)OO4)cc3)c2)cc1)C1COC2(CCCC2)OO1` (centres undefined), the Survival in [1] is 7.2 days. In data set [2], the outcome was inactive. Besides, the Activity in data set [3] stood at 3.22%.
On to `C=C(c1ccc(OCCCOc2ccc(C(=C)C3COC4(CCCC4)OO3)cc2)cc1)C1COC2(CCCC2)OO1` (centres undefined), for which the outcome in data set [5] was inactive. In addition, the Activity in [6] and in data set [3] was 100% in each case. Further, the values for the Survival in data set [1] and in [7] were over 28 days and 12.8 days, respectively. In addition, in data set [2], the outcome was Active.
On to `C=C(c1ccc(Oc2ccc(C(=C)C3COC4(CCCC4)OO3)cc2)cc1)C1COC2(CCCC2)OO1` (centres undefined), for which the Activity in data set [4], in [6] and in [3] was 100% throughout. Moreover, the outcome in data set [5] and in [2] was Active. Further, the Survival in data set [9] is over 21.2 days; in data set [1] it was over 28 days; in data set [7], over 28 days.
In turn, `C=C(c1ccc(Oc2ccc3ccc(Oc4ccc(C(=C)C5COC6(CCCC6)OO5)cc4)cc3c2)cc1)C1COC2(CCCC2)OO1` (centres undefined) displayed a Survival in data set [1] of 7.8 days. Further, the outcome in data set [2] was inactive. The compound further returned an Activity in data set [3] of 42.29%.
